Values quoted from earlier work as cited in patent US8586054B2, “Method for modulating, treating and/or preventing metabolic syndrome using MAS-G-protein-coupled receptor agonists” (Max-Delbruck-Centrum fur Molekulare Medizin, priority 2006, dated 2013).

What was measured:
[1] = LIFE study; compared with atenolol
[2] = HOPE study; versus placebo
[3] = VALUE study; hypertensive patients, valsartan versus amlodipine

For CCCCc1nc(Cl)c(CO)n1Cc1ccc(-c2ccccc2-c2nn[nH]n2)cc1 [Losartan], the “reduction in the appearance of new cases of diabetes” value [1] is listed as 25%.
For CCOC(=O)[C@H](CCc1ccccc1)N[C@@H](C)C(=O)N1[C@H](C(=O)O)C[C@@H]2CCC[C@@H]21 [ramipril], the “incidence of diabetes lower than in the group that received placebo” value [2] is given as 34%.
In the case of CCCCC(=O)N(Cc1ccc(-c2ccccc2-c2nnn[nH]2)cc1)[C@H](C(=O)O)C(C)C [valsartan], the “reduction in new cases of diabetes” value [3] is listed as 23%.
